Source: paper PMC7180948, “New Insights into 4-Anilinoquinazolines as Inhibitors of Cardiac Troponin I–Interacting Kinase (TNNi3K)” (Molecules, 2020)

Experiments:
Assay in all cases: biochemical
Design in all cases: KINOMEscan competition binding panel (Eurofins DiscoverX), single concentration, percent inhibition
Details in all cases: read-out: 15 at 1 µM % inhibition
MET(M1250T) = MET(M1250T) (Homo sapiens, UniProt P08581, M1250T)
Procedure, shortened: (§1)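 Values come from single-concentration (1 µM) profiling in the Eurofins DiscoverX KINOMEscan competition-binding platform, which covers over 400 kinases.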

SRPK3 = SRPK3 (Homo sapiens, UniProt Q9UPE1)
Procedure, shortened: as §1

ITK = ITK (Homo sapiens, UniProt Q08881)
Procedure, shortened: as §1

AKT1 = AKT1 (Homo sapiens, UniProt P31749)
Procedure, shortened: as §1

SRMS = SRMS (Homo sapiens, UniProt Q9H3Y6)
Procedure, shortened: as §1

MRCKA = target: T1, MRCKA (Homo sapiens, UniProt Q5VT25)
T1 construct: gene CDC42BPA
Procedure, shortened: as §1

PRKCE = PRKCE (Homo sapiens, UniProt Q02156)
Procedure, shortened: as §1

MAPKAPK5 = MAPKAPK5 (Homo sapiens, UniProt Q8IW41)
Procedure, shortened: as §1

BRSK2 = BRSK2 (Homo sapiens, UniProt Q8IWQ3)
Procedure, shortened: as §1

GRK4 = GRK4 (Homo sapiens, UniProt P32298)
Procedure, shortened: as §1

CDC2L5 = target: T2, CDC2L5 (Homo sapiens, UniProt Q14004)
T2 construct: gene CDK13
Procedure, shortened: as §1

S6K1 = target: T3, S6K1 (Homo sapiens, UniProt P23443)
T3 construct: gene RPS6KB1
Procedure, shortened: as §1

SYK = SYK (Homo sapiens, UniProt P43405)
Procedure, shortened: as §1

[1] = target: T4, RPS6KA5(Kin.Dom.2-C-terminal) (Homo sapiens, UniProt O75582)
T4 construct: Kin.Dom.2-C-terminal
Procedure, shortened: as §1

PDGFRA = PDGFRA (Homo sapiens, UniProt P16234)
Procedure, shortened: as §1

TSSK3 = TSSK3 (Homo sapiens, UniProt Q96PN8)
Procedure, shortened: as §1

MAP4K4 = MAP4K4 (Homo sapiens, UniProt O95819)
Procedure, shortened: as §1

BUB1 = BUB1 (Homo sapiens, UniProt O43683)
Procedure, shortened: as §1

EPHA2 = EPHA2 (Homo sapiens, UniProt P29317)
Procedure, shortened: as §1

DLK = target: T5, DLK (Homo sapiens, UniProt Q12852)
T5 construct: gene MAP3K12
Procedure, shortened: as §1

ERK4 = target: T6, ERK4 (Homo sapiens, UniProt P31152)
T6 construct: gene MAPK4
Procedure, shortened: as §1

PLK4 = PLK4 (Homo sapiens, UniProt O00444)
Procedure, shortened: as §1

EPHA4 = EPHA4 (Homo sapiens, UniProt P54764)
Procedure, shortened: as §1

RET = RET (Homo sapiens, UniProt P07949)
Procedure, shortened: as §1

Sequence of MAPKAPK5 (Q8IW41 whole entry): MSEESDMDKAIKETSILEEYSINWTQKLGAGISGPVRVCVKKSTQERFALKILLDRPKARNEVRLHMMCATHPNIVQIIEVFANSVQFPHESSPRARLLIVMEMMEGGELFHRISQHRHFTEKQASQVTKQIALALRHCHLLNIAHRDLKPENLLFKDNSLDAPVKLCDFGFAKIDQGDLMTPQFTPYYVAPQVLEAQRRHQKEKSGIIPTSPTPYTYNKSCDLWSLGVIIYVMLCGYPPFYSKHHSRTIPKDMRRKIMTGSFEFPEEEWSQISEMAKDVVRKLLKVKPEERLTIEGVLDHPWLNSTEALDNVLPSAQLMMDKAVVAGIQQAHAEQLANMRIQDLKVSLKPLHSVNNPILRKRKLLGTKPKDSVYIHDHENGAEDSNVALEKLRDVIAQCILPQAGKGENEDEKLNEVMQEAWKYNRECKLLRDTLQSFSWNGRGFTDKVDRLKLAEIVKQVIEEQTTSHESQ
Sequence of MET(M1250T) (P08581 whole entry M1250T): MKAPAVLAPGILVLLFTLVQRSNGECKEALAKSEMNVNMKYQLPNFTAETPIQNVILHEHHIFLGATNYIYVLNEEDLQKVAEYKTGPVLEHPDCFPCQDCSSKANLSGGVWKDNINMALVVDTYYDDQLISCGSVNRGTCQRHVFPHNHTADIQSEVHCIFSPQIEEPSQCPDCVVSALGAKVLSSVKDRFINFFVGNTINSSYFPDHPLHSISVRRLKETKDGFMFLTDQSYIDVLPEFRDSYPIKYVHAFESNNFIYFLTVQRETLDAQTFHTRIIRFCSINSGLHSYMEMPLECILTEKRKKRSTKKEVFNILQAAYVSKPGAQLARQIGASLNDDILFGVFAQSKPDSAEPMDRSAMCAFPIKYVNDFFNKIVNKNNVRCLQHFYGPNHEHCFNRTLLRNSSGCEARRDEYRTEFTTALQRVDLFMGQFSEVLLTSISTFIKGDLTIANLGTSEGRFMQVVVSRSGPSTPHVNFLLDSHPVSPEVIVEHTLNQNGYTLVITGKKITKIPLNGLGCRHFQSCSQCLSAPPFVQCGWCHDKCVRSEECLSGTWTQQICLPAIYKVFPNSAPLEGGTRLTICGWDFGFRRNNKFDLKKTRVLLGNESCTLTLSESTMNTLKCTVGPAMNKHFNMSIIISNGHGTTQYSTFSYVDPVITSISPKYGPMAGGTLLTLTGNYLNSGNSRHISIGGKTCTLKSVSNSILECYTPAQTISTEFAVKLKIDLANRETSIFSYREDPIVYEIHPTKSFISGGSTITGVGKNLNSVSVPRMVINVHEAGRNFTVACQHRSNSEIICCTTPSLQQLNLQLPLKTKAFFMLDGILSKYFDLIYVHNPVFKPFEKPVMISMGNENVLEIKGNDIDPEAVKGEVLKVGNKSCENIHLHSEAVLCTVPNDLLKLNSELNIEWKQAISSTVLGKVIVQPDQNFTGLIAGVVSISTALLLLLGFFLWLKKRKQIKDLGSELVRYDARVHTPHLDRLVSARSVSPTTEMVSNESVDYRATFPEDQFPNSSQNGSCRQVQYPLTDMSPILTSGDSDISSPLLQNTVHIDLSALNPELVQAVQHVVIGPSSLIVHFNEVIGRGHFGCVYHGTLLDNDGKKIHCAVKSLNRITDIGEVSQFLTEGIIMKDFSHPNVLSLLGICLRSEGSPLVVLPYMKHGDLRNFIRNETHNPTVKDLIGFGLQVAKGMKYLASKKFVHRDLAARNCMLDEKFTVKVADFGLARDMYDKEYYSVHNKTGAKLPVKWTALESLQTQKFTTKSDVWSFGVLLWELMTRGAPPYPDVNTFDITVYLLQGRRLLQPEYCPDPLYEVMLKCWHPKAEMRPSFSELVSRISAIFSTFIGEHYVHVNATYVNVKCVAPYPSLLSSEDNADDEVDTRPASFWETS
Sequence of TSSK3 (Q96PN8 whole entry): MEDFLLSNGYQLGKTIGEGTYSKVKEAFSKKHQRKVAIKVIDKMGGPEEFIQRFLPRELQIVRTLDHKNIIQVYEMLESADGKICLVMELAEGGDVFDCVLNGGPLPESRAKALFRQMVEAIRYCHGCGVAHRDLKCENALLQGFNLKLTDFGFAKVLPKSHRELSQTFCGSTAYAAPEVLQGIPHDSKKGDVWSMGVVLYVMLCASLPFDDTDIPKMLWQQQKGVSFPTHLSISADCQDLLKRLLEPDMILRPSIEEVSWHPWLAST
Sequence of AKT1 (P31749 whole entry): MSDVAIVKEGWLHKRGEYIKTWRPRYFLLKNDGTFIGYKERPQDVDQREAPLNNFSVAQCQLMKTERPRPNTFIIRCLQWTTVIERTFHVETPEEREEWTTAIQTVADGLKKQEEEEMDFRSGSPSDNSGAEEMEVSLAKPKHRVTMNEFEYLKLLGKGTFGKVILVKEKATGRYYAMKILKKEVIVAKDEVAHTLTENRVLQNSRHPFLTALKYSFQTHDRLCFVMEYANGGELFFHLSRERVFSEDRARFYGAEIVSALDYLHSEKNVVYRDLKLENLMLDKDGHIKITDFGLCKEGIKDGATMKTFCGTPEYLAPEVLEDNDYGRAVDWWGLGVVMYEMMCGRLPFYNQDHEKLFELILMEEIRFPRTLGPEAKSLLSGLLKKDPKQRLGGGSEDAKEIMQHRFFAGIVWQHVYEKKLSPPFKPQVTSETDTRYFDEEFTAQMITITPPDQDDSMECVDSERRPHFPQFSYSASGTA
Sequence of EPHA4 (P54764 whole entry): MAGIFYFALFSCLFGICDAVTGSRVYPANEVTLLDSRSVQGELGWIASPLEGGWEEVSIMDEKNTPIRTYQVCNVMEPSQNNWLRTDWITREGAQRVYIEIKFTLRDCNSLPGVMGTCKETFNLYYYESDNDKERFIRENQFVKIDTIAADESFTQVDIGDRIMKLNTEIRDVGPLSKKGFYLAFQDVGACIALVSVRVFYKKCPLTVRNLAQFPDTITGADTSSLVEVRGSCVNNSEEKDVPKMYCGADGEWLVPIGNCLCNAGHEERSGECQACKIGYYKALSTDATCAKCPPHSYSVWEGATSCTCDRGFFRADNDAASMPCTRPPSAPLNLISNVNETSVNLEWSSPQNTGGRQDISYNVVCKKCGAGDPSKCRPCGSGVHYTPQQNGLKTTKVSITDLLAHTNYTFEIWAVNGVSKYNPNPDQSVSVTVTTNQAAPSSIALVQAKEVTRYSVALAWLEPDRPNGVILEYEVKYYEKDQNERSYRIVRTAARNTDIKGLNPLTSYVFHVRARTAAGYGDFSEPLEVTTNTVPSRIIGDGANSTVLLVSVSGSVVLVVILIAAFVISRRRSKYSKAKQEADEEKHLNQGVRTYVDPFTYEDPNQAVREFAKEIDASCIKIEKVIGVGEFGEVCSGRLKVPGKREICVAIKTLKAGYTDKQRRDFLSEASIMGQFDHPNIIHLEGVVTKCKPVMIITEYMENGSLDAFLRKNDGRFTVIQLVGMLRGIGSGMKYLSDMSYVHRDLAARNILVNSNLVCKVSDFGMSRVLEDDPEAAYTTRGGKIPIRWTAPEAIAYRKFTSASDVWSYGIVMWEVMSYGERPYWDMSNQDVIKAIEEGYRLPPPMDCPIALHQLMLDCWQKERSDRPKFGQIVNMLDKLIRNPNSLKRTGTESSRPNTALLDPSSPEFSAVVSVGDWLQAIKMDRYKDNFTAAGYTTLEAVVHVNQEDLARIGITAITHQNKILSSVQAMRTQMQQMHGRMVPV
T5 sequence (Q12852 whole entry): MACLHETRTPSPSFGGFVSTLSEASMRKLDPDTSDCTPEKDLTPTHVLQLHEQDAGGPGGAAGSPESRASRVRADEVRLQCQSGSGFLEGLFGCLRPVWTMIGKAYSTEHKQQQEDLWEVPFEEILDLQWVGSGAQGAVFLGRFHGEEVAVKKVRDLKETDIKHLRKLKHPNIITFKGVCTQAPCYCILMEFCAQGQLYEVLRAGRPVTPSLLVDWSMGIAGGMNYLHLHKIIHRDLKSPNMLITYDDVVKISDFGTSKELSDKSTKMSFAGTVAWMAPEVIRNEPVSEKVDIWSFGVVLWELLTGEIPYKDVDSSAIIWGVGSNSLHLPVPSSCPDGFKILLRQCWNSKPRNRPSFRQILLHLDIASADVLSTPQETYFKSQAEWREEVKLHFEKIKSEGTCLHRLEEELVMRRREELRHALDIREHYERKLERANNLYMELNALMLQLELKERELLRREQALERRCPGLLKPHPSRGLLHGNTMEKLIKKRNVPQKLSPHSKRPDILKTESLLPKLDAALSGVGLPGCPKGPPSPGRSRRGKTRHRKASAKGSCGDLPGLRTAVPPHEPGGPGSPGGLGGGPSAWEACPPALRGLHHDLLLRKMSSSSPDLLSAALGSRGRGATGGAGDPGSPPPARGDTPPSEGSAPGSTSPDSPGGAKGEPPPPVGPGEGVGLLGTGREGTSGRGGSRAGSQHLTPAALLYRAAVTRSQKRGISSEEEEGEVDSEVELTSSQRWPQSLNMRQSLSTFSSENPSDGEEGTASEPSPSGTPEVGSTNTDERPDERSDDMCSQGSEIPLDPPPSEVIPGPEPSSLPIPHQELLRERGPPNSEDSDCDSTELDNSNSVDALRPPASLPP
Sequence of SRPK3 (Q9UPE1 whole entry): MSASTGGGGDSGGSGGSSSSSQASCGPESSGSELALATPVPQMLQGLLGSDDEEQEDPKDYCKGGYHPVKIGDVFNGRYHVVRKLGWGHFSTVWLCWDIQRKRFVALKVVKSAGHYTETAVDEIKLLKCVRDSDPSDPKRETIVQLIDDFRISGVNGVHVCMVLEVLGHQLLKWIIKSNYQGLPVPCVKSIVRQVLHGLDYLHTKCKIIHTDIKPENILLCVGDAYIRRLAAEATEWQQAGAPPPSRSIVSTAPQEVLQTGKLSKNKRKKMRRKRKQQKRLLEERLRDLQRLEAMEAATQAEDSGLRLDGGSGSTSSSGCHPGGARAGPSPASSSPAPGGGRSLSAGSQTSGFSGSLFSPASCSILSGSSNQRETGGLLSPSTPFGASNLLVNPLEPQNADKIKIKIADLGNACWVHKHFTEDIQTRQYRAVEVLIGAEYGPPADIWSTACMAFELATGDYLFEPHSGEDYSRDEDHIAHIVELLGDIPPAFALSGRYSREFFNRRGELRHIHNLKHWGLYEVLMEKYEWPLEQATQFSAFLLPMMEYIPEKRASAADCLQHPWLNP

inhibition at 1 µM (MET(M1250T)): 0% | inhibition at 1 µM (SRPK3): 1% | inhibition at 1 µM (ITK): 0% | inhibition at 1 µM (AKT1): 0% | inhibition at 1 µM (SRMS): 17% | inhibition at 1 µM (MRCKA): 0% | inhibition at 1 µM (PRKCE): 11% | inhibition at 1 µM (MAPKAPK5): 23% | inhibition at 1 µM (BRSK2): 21% | inhibition at 1 µM (GRK4): 8% | inhibition at 1 µM (CDC2L5): 23% | inhibition at 1 µM (S6K1): 20% | inhibition at 1 µM (SYK): 0% | inhibition at 1 µM [1]: 8% | inhibition at 1 µM (PDGFRA): 10% | inhibition at 1 µM (TSSK3): 28% | inhibition at 1 µM (MAP4K4): 9% | inhibition at 1 µM (BUB1): 7% | inhibition at 1 µM (EPHA2): 0% | inhibition at 1 µM (DLK): 12% | inhibition at 1 µM (ERK4): 0% | inhibition at 1 µM (PLK4): 23% | inhibition at 1 µM (EPHA4): 0% | inhibition at 1 µM (RET): 0%
Compound: CNS(=O)(=O)c1ccc(N(C)C)c(Nc2nc(C)nc3cc(OC)c(OC)cc23)c1 [compound 15, 3-((6,7-dimethoxy-2-methylquinazolin-4-yl)amino)-4-(dimethylamino)-N-methylbenzenesulfonamide]
